Test results reported in ChEMBL document CHEMBL4346735, “Discovery and pharmacological evaluation of indole derivatives as potent and selective RORγt inverse agonist for multiple autoimmune conditions” (Bioorg Med Chem Lett, 2019).

molecular target: T1, Nuclear receptor ROR-gamma (Homo sapiens, UniProt P51449); experiment: Transactivation of recombinant GAL4-DBD fused RORgammat LBD (unknown origin) expressed in HEK293T cells incubated for 18 to 24 hrs by dual-Glo luciferase assay; assay type: cell-based; settings: not given
T1 sequence (P51449 whole entry): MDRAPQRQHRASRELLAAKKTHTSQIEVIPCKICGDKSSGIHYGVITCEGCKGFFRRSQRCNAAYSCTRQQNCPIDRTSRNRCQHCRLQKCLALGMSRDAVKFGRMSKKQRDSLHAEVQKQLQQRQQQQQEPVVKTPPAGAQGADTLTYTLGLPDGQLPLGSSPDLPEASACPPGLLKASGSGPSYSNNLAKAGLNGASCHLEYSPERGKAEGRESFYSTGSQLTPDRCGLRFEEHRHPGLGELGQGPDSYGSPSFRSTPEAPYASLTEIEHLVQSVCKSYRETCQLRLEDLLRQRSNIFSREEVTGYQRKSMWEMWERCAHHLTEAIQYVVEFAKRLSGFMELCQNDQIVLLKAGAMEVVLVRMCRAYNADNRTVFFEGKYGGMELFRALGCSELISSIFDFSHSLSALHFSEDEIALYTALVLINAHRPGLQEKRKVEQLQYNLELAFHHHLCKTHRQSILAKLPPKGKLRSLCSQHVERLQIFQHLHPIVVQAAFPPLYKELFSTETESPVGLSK

Compound	IC50 [µM]
O=C(O)c1ccc(-n2cc(C(=O)c3c(F)cccc3Cl)c3ccccc32)cc1	0.199
O=C(O)c1ccc(-n2cc(C(=O)c3ccccc3Cl)c3ccccc32)cc1	0.205
O=C(O)c1ccc(-n2cc(C(=O)c3c(F)cc(F)cc3Cl)c3ccccc32)cc1	0.21
Cc1cc(C(=O)O)ccc1-n1cc(C(=O)c2c(Cl)cccc2Cl)c2ccccc21	0.213
Cc1cccc2c(C(=O)c3ccccc3Cl)cn(-c3ccc(C(=O)O)cc3F)c12	0.119
O=C(O)c1ccc(-n2cc(C(=O)c3c(Cl)cccc3C(F)(F)F)c3c(F)cccc32)cc1	0.038
Cc1cccc(Cl)c1C(=O)c1cn(-c2ccc(C(=O)O)cc2)c2cccc(F)c12	0.093
O=C(O)c1ccc(-n2cc(C(=O)c3c(Cl)cccc3Cl)c3c(F)cccc32)c(F)c1	0.037

molecular target: Cytochrome P450 2D6 (Homo sapiens, UniProt P10635); experiment: Inhibition of CYP2D6 in human liver microsomes using dextromethorphan as substrate preincubated for 5 mins followed by NADPH addition measured after 10 mins by LC-MS/MS analysis; settings: not given
Sequence (P10635 whole entry): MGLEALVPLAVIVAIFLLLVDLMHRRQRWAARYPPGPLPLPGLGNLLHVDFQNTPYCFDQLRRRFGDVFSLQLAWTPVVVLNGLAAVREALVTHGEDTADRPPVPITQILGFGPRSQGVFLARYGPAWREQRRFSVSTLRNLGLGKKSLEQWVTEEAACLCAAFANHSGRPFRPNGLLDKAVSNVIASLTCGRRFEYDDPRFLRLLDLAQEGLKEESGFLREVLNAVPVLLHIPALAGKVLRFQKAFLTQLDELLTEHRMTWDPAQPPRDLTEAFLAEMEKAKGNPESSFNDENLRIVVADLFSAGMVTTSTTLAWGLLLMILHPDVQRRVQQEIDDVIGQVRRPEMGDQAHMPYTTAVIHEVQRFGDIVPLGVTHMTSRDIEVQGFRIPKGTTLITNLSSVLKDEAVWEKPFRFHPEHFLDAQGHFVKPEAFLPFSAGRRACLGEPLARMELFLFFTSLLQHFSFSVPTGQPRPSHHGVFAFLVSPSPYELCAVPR

Compound	IC50 [µM]
O=C(O)c1ccc(-n2cc(C(=O)c3c(F)cccc3Cl)c3ccccc32)cc1	> 100
O=C(O)c1ccc(-n2cc(C(=O)c3c(Cl)cccc3C(F)(F)F)c3c(F)cccc32)cc1	> 50
O=C(O)c1ccc(-n2cc(C(=O)c3c(Cl)cccc3Cl)c3c(F)cccc32)c(F)c1	> 50

molecular target: T1, Nuclear receptor ROR-gamma; experiment: Inverse agonist activity at GST-tagged RORgammat LBD (unknown origin) using fluorescein-D22 co-activator peptide as substrate incubated for 1 hr by TR-FRET assay; settings: not given

Compound	IC50 [µM]
O=C(O)c1ccc(-n2cc(C(=O)c3c(F)cccc3Cl)c3ccccc32)cc1	0.02
Cc1cccc2c(C(=O)c3ccccc3Cl)cn(-c3ccc(C(=O)O)cc3F)c12	0.0081

test system: not listed separately; experiment: Metabolic stability in human liver microsomes assessed as parent compound remaining at 1 uM preincubated for 5 mins followed by NADPH addition after 30 mins by LC-MS/MS analysis; assay type: ADME, Microsome; settings: read-out: Stability

Compound	remaining at 0.5 h, 1 µM [%]
O=C(O)c1ccc(-n2cc(C(=O)c3c(F)cccc3Cl)c3ccccc32)cc1	100
O=C(O)c1ccc(-n2cc(C(=O)c3c(Cl)cccc3C(F)(F)F)c3c(F)cccc32)cc1	79
Cc1cccc(Cl)c1C(=O)c1cn(-c2ccc(C(=O)O)cc2)c2cccc(F)c12	77
O=C(O)c1ccc(-n2cc(C(=O)c3c(Cl)cccc3Cl)c3c(F)cccc32)c(F)c1	88

test system: not listed separately; experiment: Metabolic stability in mouse liver microsomes assessed as parent compound remaining at 1 uM preincubated for 5 mins followed by NADPH addition after 30 mins by LC-MS/MS analysis; assay type: ADME, Microsome; settings: read-out: Stability

Compound	remaining at 0.5 h, 1 µM [%]
O=C(O)c1ccc(-n2cc(C(=O)c3c(F)cccc3Cl)c3ccccc32)cc1	100
O=C(O)c1ccc(-n2cc(C(=O)c3ccccc3Cl)c3ccccc32)cc1	96
Cc1cccc2c(C(=O)c3ccccc3Cl)cn(-c3ccc(C(=O)O)cc3F)c12	67
O=C(O)c1ccc(-n2cc(C(=O)c3c(Cl)cccc3C(F)(F)F)c3c(F)cccc32)cc1	96
Cc1cccc(Cl)c1C(=O)c1cn(-c2ccc(C(=O)O)cc2)c2cccc(F)c12	80
O=C(O)c1ccc(-n2cc(C(=O)c3c(Cl)cccc3Cl)c3c(F)cccc32)c(F)c1	100

molecular target: T2, Cytochrome P450 1A2 (Homo sapiens, UniProt P05177); experiment: Inhibition of CYP1A2 in human liver microsomes using phenacetin as substrate preincubated for 5 mins followed by NADPH addition measured after 10 mins by LC-MS/MS analysis; settings: not given
T2 sequence (P05177 whole entry): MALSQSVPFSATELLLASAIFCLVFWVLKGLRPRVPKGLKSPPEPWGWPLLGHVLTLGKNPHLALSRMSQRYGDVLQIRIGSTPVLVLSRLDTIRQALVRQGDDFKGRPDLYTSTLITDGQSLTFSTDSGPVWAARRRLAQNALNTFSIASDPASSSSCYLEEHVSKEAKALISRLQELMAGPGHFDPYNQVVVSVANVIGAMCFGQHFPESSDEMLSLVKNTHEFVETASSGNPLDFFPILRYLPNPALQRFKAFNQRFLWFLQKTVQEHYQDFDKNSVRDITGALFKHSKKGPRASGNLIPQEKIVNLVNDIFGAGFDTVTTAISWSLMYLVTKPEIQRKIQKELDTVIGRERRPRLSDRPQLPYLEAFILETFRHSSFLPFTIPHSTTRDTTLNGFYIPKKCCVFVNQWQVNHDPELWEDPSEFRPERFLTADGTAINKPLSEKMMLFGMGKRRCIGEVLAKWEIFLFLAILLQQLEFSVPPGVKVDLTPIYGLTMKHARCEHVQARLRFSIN

Compound	IC50 [µM]
O=C(O)c1ccc(-n2cc(C(=O)c3c(F)cccc3Cl)c3ccccc32)cc1	96.6
O=C(O)c1ccc(-n2cc(C(=O)c3c(Cl)cccc3C(F)(F)F)c3c(F)cccc32)cc1	> 50
O=C(O)c1ccc(-n2cc(C(=O)c3c(Cl)cccc3Cl)c3c(F)cccc32)c(F)c1	> 50

molecular target: Cytochrome P450 2C9 (Homo sapiens, UniProt P11712); experiment: Inhibition of CYP2C9 in human liver microsomes using diclofenac as substrate preincubated for 5 mins followed by NADPH addition measured after 10 mins by LC-MS/MS analysis; settings: not given
Sequence (P11712 whole entry): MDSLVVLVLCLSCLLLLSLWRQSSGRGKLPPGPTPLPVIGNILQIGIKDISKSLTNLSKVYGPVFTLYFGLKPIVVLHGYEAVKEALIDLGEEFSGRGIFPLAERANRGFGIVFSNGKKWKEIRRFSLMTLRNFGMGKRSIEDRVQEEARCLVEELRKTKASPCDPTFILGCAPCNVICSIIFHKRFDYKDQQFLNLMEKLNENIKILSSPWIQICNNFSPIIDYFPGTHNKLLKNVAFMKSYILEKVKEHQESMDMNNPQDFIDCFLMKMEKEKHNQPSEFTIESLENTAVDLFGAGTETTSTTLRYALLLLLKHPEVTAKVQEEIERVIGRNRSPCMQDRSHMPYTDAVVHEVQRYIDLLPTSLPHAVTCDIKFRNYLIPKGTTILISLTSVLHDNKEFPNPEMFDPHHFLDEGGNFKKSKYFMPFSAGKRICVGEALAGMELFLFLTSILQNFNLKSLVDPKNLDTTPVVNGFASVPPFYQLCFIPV

Compound	IC50 [µM]
O=C(O)c1ccc(-n2cc(C(=O)c3c(F)cccc3Cl)c3ccccc32)cc1	9
O=C(O)c1ccc(-n2cc(C(=O)c3c(Cl)cccc3C(F)(F)F)c3c(F)cccc32)cc1	22.6
O=C(O)c1ccc(-n2cc(C(=O)c3c(Cl)cccc3Cl)c3c(F)cccc32)c(F)c1	8.01

test system: not listed separately; experiment: Metabolic stability in rat liver microsomes assessed as parent compound remaining at 1 uM preincubated for 5 mins followed by NADPH addition after 30 mins by LC-MS/MS analysis; assay type: ADME, Microsome; settings: read-out: Stability

Compound	remaining at 0.5 h, 1 µM [%]
O=C(O)c1ccc(-n2cc(C(=O)c3c(F)cccc3Cl)c3ccccc32)cc1	100
O=C(O)c1ccc(-n2cc(C(=O)c3c(Cl)cccc3C(F)(F)F)c3c(F)cccc32)cc1	65
Cc1cccc(Cl)c1C(=O)c1cn(-c2ccc(C(=O)O)cc2)c2cccc(F)c12	70
O=C(O)c1ccc(-n2cc(C(=O)c3c(Cl)cccc3Cl)c3c(F)cccc32)c(F)c1	44

molecular target: T3, Cytochrome P450 3A4 (Homo sapiens, UniProt P08684); experiment: Inhibition of CYP3A4 in human liver microsomes using testosterone as substrate preincubated for 5 mins followed by NADPH addition measured after 10 mins by LC-MS/MS analysis; settings: not given
T3 sequence (P08684 whole entry): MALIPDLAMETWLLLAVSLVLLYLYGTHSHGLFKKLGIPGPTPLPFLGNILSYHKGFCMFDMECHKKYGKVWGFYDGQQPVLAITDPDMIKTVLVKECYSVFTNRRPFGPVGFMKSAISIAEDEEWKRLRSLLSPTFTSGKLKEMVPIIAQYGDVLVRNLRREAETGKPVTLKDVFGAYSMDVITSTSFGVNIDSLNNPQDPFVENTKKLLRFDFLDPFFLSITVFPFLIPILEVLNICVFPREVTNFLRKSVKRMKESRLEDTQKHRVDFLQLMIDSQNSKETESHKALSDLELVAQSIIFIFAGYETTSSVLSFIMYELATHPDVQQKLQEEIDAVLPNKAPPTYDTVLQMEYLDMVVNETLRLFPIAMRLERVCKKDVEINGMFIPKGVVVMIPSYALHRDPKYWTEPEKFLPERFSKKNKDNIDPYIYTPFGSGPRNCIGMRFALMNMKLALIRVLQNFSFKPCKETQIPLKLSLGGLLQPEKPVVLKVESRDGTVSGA

Compound	IC50 [µM]
O=C(O)c1ccc(-n2cc(C(=O)c3c(Cl)cccc3C(F)(F)F)c3c(F)cccc32)cc1	16.4
O=C(O)c1ccc(-n2cc(C(=O)c3c(Cl)cccc3Cl)c3c(F)cccc32)c(F)c1	8.34

molecular target: T3, Cytochrome P450 3A4; experiment: Inhibition of CYP3A4 in human liver microsomes using midazolam as substrate preincubated for 5 mins followed by NADPH addition measured after 10 mins by LC-MS/MS analysis; settings: not given

Compound	IC50 [µM]
O=C(O)c1ccc(-n2cc(C(=O)c3c(F)cccc3Cl)c3ccccc32)cc1	> 100

molecular target: Cytochrome P450 2C19 (Homo sapiens, UniProt P33261); experiment: Inhibition of CYP2C19 in human liver microsomes using (S)-mephenytoin as substrate preincubated for 5 mins followed by NADPH addition measured after 40 mins by LC-MS/MS analysis; settings: not given
Sequence (P33261 whole entry): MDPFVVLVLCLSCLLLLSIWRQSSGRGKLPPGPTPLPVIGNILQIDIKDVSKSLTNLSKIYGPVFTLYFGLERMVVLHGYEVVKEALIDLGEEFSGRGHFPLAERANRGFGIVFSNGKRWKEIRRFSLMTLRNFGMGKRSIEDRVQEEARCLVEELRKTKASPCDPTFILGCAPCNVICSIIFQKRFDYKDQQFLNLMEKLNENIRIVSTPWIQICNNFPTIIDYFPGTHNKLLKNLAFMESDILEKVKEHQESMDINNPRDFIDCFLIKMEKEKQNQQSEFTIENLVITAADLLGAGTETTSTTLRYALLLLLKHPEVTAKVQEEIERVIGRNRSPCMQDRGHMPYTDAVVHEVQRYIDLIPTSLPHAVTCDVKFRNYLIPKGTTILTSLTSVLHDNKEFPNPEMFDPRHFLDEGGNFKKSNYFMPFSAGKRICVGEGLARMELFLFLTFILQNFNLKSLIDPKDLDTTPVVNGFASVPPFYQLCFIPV

Compound	IC50 [µM]
O=C(O)c1ccc(-n2cc(C(=O)c3c(F)cccc3Cl)c3ccccc32)cc1	> 100
O=C(O)c1ccc(-n2cc(C(=O)c3c(Cl)cccc3C(F)(F)F)c3c(F)cccc32)cc1	50
O=C(O)c1ccc(-n2cc(C(=O)c3c(Cl)cccc3Cl)c3c(F)cccc32)c(F)c1	> 50
